Laboratory results as given in US20180030091A1, “COLLAGEN-BINDING SYNTHETIC PEPTIDOGLYCANS FOR USE IN VASCULAR INTERVENTION” (Purdue Research Foundation, priority 2010, published 2018).
Entries after “also recorded” stand apart in the source; their conditions may differ. Where no end group is shown, it is not given here.

Assays:
Fibrillar collagen = test: Binding affinity of biotin labeled peptidoglycan to fibrillar collagen; details: biotin labeled peptidoglycans, fitted saturation binding curves
Method: Fibrillar collagen (Chronolog, Havertown, Pa.) was coated onto the surface of a 96-well high bind plate (Costar) at a concentration of 50 μg/mL diluted in isotonic glucose. Plates were covered and incubated overnight at 4° C. Unbound collagen was removed by rinsing 3 times with 1×PBS pH 7.4. Plates were then blocked with 1% BSA for 3 hours at room temperature. Peptidoglycan was dissolved at varying concentrations in 1×PBS pH 7.4 containing 1% BSA and were immediately added to the collagen surfaces, and allowed to incubate for 15 min at room temperature. Plates were then rinsed 3 times with 1×PBS pH 7.4 containing 1% BSA. Streptavidin-HRP solution (R&D Systems, Minneapolis, Minn.) was then added to the plates and incubated for 20 minutes at room temperature. […] The color evolving reaction was stopped with 50 μL 2N sulfuric acid and absorbance was measured at 450 nm using an M5 UV Vis Spectrophotometer (Molecular Devices). Plate imperfections (540 nm) were subtracted from absorbance values.
The binding affinities of biotin labeled peptidoglycans, labeled using protocols known in the art, DS-SILY4 and DS-SILY18 were calculated by fitting the saturation binding curves and calculating the inflection point. […]

collagen [1] = molecular target: T1, collagen (Bos taurus, UniProt P02453+P02465); test: Collagen fibrillogenesis by turbidity at 313 nm; assay type: biochemical; details: 1:1 collagen:additive molar ratio
T1 construct: purchased Inamed, Freemont, Calif; (Nutragen)
T1 sequence (P02453 162-1217 limits assumed): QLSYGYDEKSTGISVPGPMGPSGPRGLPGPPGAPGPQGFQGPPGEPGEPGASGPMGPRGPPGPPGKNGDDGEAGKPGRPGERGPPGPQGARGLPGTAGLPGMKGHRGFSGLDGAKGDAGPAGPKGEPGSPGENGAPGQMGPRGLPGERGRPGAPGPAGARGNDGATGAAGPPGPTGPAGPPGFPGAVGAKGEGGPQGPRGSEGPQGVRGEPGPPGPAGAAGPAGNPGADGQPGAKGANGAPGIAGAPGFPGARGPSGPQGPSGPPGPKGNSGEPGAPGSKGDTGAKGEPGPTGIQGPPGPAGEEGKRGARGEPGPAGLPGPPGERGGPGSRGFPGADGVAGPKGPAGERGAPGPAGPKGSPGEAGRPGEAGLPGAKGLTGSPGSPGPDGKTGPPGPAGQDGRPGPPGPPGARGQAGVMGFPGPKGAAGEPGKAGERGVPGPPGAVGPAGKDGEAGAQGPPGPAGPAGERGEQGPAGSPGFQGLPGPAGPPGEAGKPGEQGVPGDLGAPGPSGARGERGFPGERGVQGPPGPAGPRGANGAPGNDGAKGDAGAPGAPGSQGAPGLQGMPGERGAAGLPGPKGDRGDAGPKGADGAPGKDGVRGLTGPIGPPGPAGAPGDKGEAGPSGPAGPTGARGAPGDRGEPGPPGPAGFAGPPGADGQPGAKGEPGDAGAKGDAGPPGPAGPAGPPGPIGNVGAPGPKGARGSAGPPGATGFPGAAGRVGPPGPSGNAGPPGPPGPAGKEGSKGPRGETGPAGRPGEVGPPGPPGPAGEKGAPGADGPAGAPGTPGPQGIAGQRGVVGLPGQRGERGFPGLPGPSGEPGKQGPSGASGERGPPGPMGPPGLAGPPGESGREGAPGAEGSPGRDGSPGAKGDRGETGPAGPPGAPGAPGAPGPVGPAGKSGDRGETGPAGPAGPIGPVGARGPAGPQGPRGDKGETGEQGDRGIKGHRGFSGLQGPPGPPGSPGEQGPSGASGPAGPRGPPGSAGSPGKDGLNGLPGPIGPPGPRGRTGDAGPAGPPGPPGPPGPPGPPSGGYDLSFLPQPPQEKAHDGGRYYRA
T1 sequence (P02465 80-1117 limits assumed): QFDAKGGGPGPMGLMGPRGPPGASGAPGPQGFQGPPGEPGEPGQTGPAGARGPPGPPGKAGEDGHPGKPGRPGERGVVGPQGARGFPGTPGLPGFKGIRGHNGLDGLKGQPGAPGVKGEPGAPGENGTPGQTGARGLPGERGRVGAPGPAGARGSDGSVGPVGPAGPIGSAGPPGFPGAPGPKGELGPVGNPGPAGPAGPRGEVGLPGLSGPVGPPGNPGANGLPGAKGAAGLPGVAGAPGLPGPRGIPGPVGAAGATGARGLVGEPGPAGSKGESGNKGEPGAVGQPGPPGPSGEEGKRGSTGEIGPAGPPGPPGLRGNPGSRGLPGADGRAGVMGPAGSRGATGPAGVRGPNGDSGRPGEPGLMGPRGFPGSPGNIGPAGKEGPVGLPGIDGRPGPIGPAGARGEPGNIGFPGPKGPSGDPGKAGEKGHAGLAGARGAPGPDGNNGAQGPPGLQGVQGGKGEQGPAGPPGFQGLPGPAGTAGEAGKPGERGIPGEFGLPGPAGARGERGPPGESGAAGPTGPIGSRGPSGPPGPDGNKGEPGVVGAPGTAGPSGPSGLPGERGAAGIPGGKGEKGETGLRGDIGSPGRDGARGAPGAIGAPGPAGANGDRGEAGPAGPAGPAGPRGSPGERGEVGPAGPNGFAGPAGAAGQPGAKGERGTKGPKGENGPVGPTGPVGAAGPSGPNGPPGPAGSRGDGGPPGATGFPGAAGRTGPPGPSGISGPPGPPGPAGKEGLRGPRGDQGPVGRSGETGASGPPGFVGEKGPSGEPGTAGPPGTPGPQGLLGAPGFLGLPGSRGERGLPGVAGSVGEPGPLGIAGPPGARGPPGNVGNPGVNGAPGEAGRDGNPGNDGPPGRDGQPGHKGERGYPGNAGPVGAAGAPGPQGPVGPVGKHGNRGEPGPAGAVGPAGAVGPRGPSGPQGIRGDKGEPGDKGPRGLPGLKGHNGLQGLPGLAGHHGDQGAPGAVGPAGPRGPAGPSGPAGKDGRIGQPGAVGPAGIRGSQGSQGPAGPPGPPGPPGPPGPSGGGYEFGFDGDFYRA
Method: Collagen fibrillogenesis was monitored by measuring turbidity related absorbance at 313 nm providing information on rate of fibrillogenesis and fibril diameter. Gel solutions were prepared as described in EXAMPLE 15 (4 mg/mL collagen, 10:1 collagen:treatment, unless otherwise indicated) and 50 uL/well were added at 4° C. to a 384-well plate. The plate was kept at 4° C. for 4 hours before initiating fibril formation. A SpectraMax M5 at 37° C. was used to measure absorbance at 313 nm at 30 s intervals for 6 hours.
A fibrillogenesis assay as described for DS-SILY, EXAMPLE 17, performed with the conjugate DS-Dc13.

[2] = tested on: Human aortic smooth muscle cells; test: Collagen remodeling: hydroxyproline content in medium of cell-seeded collagen gels; assay type: cell-based; details: up to 30 days
Method: Following a method by Grassl, et al. (Grassl, et al., Journal of Biomedical Materials Research 2002, 60, (4), 607-612), which is herein incorporated in its entirety, collagen gels with or without synthetic PG mimics were formed as described in EXAMPLE 15. Human aortic smooth muscle cells (Cascade Biologics, Portland, Oreg.) were seeded within collagen gels by adding 4×10^6 cells/mL to the neutralized collagen solution prior to incubation. The cell-collagen solutions were pipetted into an 8-well Lab-Tek chamber slide and incubated in a humidified 37° C. and 5% CO2 incubator. After gelation, the cell-collagen gels will be covered with 1 mL Medium 231 as prescribed by Cascade. Every 3-4 days, the medium was removed from the samples and the hydroxyproline content measured by a standard hydroxyproline assay (Reddy, 1996).
To measure degraded collagen in the supernatant medium, the sample was lyophilized, the sample hydrolyzed in 2 M NaOH at 120° C. for 20 min. After cooling, free hydroxyproline was oxidized by adding chloramine-T (Sigma) and reacting for 25 min at room temperature. Ehrlich's aldehyde reagent (Sigma) was added and allowed to react for 20 min at 65° C. and followed by reading the absorbance at 550 nm on an M-5 spectrophotometer (Molecular Devices). […] Cultures were incubated for up to 30 days and three samples of each treatment measured. […]

collagen [3] = test: Cryo-SEM measurement of fibril diameters; details: cryo-SEM images at 20,000×
Method: Using a modification of EXAMPLE 18 fibril diameters were measured by 8cryo-SEM. Fibril diameters from cryo-SEM images taken at 20,000× were measured using ImageJ software (NIH). At least 45 fibrils were measured for each treatment. Results are presented as Avg.±S.E. Statistical analysis was performed using DesignExpert software (StatEase) with α=0.05.

[4] = tested on: Human coronary artery smooth muscle cells (HCA SMC); test: Gel compaction by smooth muscle cells in collagen gels; assay type: cell-based
Method: Human coronary artery smooth muscle cells (HCA SMC) (Cascade Biologics) were cultured in growth medium (Medium 231 supplemented with smooth muscle growth factor). Cells from passage 3 were used for all experiments. Differentiation medium (Medium 231 supplemented with 1% FBS and 1×pen/strep) was used for all experiments unless otherwise noted.
Collagen gels were prepared with each additive as described with the exception that the 1×PBS sample addition was omitted to accommodate the addition of cells in media. After incubating on ice for 30 min, HCA SMCs in differentiation medium were added to the gel solutions to a final concentration of 1×10^6 cells/mL. Gels were formed in quadruplicate in 48-well non-tissue culture treated plates (Costar) for 6 hrs before adding 500 μL/well differentiation medium. Gels were freed from the well edges after 24 hrs. Medium was changed every 2-3 days and images for compaction were taken at the same time points using a Gel Doc System (Bio-Rad). The cross-sectional area of circular gels correlating to degree of compaction was determined using ImageJ software (NIH). Gels containing no cells were used as a negative control and cells in collagen gels absent additive were used as a positive control. By day 10 all gels had compacted to approximately 10% of the original gel area, and differences between additives were small.

[5] = tested on: Human platelets on Type I fibrillar collagen; test: Inhibition of platelet activation on fibrillar collagen after 24 hour rinse (PF4, NAP2); assay type: cell-based; details: 50 μM, incubated 15 min, rinsed for 24 hours
Method: Type I fibrillar collagen from Chronolog was diluted in isotonic glucose to a concentration of 50 μg/mL. 50 μL of collagen solution was added to each well of a high bind 96-well plate. The plate was incubated overnight at 4° C., and then rinsed 3× with 1×PBS. For microplate assays, peptidoglycan was diluted in 1×PBS at concentrations between 0.0001 μM to 100 μM and 50 μL solution was added to the collagen coated wells. DS, peptide, or 1×PBS were also added to collagen coated wells as controls. Treatments were incubated at 37° C. with shaking at 200 rpm for 15 min. Wells were then rinsed of unbound treatment by removing the treatment solution, adding PBS, and shaking the wells for 24 hours. During the 24 hours, PBS solution was changed 3 times.
Human whole blood was collected from healthy volunteers by venipuncture. The first 5 mL of blood was discarded and approximately 20 mL was then collected into citrated glass vacutainers (BD Bioscience). Blood was centrifuged in the glass tube for 20 min at 200 g at 25° C. The top layer of the centrifuged blood, the platelet rich plasma (PRP), was used for platelet experiments.
PRP (50 μL/well) was added to the microplate for 1 hour at room temperature without shaking. After 1 hour of incubation, 45 μL of PRP was removed from each well and added to a microcentrifuge tube containing […] ETP (107 mM EDTA, 12 mM theophylline, and 2.8 mM prostaglandin E1) to inhibit further platelet activation. These tubes were spun at 4° C. for 30 min at 2000 g to pellet the platelets. The supernatant (platelet serum) was collected for ELISA studies to test for the presence of platelet activation markers PF-4 and NAP2. Sandwich ELISAs were utilized in order to detect each protein. The components for both sandwich ELISAs were purchased from R&D Systems and the provided protocols were followed. Platelet serum was diluted 10,000 times in 1% BSA in 1×PBS for values to fall within a linear range.
Platelet activation was measured through release of platelet factor 4 (PF4) and β-thromboglobulin (NAP2). […] Since the high SILY/DS ratio is expected to provide higher binding affinity to the collagen surface due to multiple interactions, peptidoglycans with the higher SILY/DS ratios were prepared.
The number of peptides per DS molecule was further increased to 18 to create the peptidoglycan DS-SILY18, and the concentration of molecule needed to inhibit platelet activation was tested. […] Within solubility limits, the number of peptides can be increased to achieve maximal platelet inhibition as well as to reduce diffusion over time, where a higher level of peptidoglycans on the denuded vessel wall is sustained.

collagen [6] = test: SILY binding to collagen (Biacore surface plasmon resonance)
Method: Biacore studies were performed on a Biacore 2000 using a CM-3 chip (Biacore, Inc., Piscataway, N.J.). The CM-3 chip is coated with covalently attached carboxymethylated dextran, which allows for attachment of the substrate collagen via free amine groups. Flow cells (FCs) 1 and 2 were used, with FC-1 as the reference cell and FC-2 as the collagen immobilized cell. Each FC was activated with EDC-NHS, and 1500 RU of collagen was immobilized on FC-2 by flowing 1 mg/mL collagen in sodium acetate, pH 4, buffer at 5 μL/min for 10 min. Unreacted […] sites were capped with ethanolamine; the control FC-1 was activated and capped with ethanolamin.
To determine peptide binding affinity, SILY was dissolved in 1×HBS-EP buffer (Biacore) at varying concentrations from 100 μM to 1.5 μm in 2-fold dilutions. […] The first 10 injections were buffer injections, which help to prime the system, followed by randomized sample injections, run in triplicate. Analysis was performed using BIAevaluation software (Biacore).

collagen [7] = molecular target: T1, collagen; test: Cryo-SEM measurement of fibril density; details: 10:1 molar ratio, cryo-SEM 10,000×
Method: Collagen gels were formed in the presence of each additive at a 10:1 molar ratio, as described in EXAMPLE 15, directly on the SEM stage, processed, and imaged as described. Images at 10,000× were analyzed for fibril density calculations. Images were converted to 8-bit black and white, and threshold values for each image were determined using ImageJ software (NIH). The threshold was defined as the value where all visible fibrils are white, and all void space is black. The ratio of white to black area was calculated using MatLab software. All measurements were taken in triplicate and thresholds were determined by an observer blinded to the treatment.

Substance: DS-SILY4: dermatan sulfate with 4 SILY peptides via BMPH; tested biotin labeled (RRANAALKAGELYKSILYGC-NH2; also: Cys thiol coupled via BMPH crosslinker to oxidized dermatan sulfate, 4 peptides per glycan, biotin label in tested form, position not given here)
- Kd (Fibrillar collagen): 118 nM

Substance: SYIRIADTNITGC [Dc13]
- fibrillogenesis (absorbance at 313 nm), free peptide (collagen [1]): little effect on fibrillogenesis compared to collagen alone
- collagen degradation by hydroxyproline content in cell medium [2]: greater collagen degradation compared to collagen alone

Substance: Decorin
- fibril diameter (collagen [3]): significantly decrease fibril diameter over collagen or collagen+DS; also recorded: significantly decrease fibril diameter over collagen or collagen+dermatan sulfate
- gel compaction, day 7 ([4]; Day 7): significant against all samples
- gel compaction, days 3 and 5 ([4]; Days 3 and 5): significant relative to collagen and DS

Substance: RRANAALKAGELYKSILYGC
- inhibition of platelet activation (release of PF4 and NAP2) [5]: little to no effect on inhibiting platelet activation
- binding to collagen (association/disassociation curves) (collagen [6]; 100 μM to 1.5 μm in 2-fold dilutions): binds reversibly with collagen
- Kd (collagen [6]; calculated from the on-off binding kinetics, collagen on CM-3 chip): 1200 nM
- collagen degradation by hydroxyproline content in cell medium [2]: greater collagen degradation compared to collagen alone
- fibril density (ratio of fibril containing area to void space) (collagen [7]): significantly greater fibril density
